In US20240252488A1 (KOREA RESEARCH INSTITUTE OF CHEMICAL TECHNOLOGY, priority 2020, published 2024):

How the values were obtained:
MLKL [1] = target: T1, MLKL (Homo sapiens, UniProt Q8NB16); assay: MLKL degradation assay in HepG2 cell line (western blot); type: cell-based; set-up: endogenous in cells; host or cells: HepG2 or HaCaT; conditions: cell line not given; for Degradation assay (Degradation %) 1 μM: compound 1 μM; for Degradation assay (Degradation %) 10 μM: compound 10 μM
T1 sequence (Q8NB16 1-471): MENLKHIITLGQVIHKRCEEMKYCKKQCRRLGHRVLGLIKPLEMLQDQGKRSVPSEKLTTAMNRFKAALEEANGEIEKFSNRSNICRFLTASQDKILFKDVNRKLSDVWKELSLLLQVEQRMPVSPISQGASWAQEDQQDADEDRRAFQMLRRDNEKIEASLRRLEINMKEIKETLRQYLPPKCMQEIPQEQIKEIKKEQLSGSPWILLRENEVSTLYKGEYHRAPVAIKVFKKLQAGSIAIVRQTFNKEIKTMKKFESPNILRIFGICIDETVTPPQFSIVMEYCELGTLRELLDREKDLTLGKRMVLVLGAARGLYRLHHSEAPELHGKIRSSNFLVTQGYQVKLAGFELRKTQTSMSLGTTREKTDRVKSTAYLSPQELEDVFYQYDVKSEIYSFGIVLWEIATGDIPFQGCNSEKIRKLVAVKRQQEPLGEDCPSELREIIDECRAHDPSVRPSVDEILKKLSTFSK
Outline: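 HepG2 cells were treated 20-24 h at 37 °C with compound at 1 or 10 μM final. RIPA lysates were normalized by BCA, and 10-15 μg protein per lane was resolved by SDS-PAGE. MLKL was detected by western blot with chemiluminescence.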

FADD−/− Jurkat cells = assay: Necroptosis inhibition assay, TNF-α-induced necroptosis (CellTiter-Glo 2.0); type: cell-based, human; conditions: TNF-α 15 ng/mL; for Necroptosis inhibition assay (Rescue %) 1 μM: compound 1 μM; for Necroptosis inhibition assay (Rescue %) 10 μM: compound 10 μM
Outline: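 FADD−/− Jurkat cells preincubated 30 min at room temperature with compound at 0.1, 1 and 10 μM final, then stimulated with TNF-α (15 ng/mL final) for 20–24 h at 37 °C, 5% CO2. Viability read as ATP luminescence; cytotoxicity and necroptosis inhibition rate calculated from luminescence values.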

MLKL [2] = target: T1, MLKL; assay: Measurement of binding affinity with MLKL receptor (competitive binding assay, Kd); set-up: made in house; host or cells: HEK 293 cell line (T7 phage in E. coli BL21-derived host is also described)
Outline: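 HEK 293-expressed, DNA-tagged MLKL; ligand beads blocked with biotin and SeaBlock/1% BSA/0.05% Tween 20/1 mM DTT buffer. Cpd from 111× DMSO stock, 0.9% DMSO final. Eluted kinase by qPCR → Kd.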

For `Nc1ncc(-c2cnn(C3CCN(CCOCCOCCOCCNC(=O)C4CN(c5ccc6c(c5)C(=O)N(C5CCC(=O)NC5=O)C6=O)C4)CC3)c2)nc1C(=O)O[C@@H](C(=O)Nc1ccc(F)cc1)c1ccccc1` (stereo partly drawn) [TDH-142, (R)-2-((4-fluorophenyl)amino)-2-oxo-1-phenylethyl 3-amino-6-(1-(1-(1-(1-(2-(2,6-dioxopiperidin-3-yl)-1,3-dioxoisoindolin-5-yl)azetidin-3-yl)-1-oxo-5,8,11-trioxa-2-azatridecan-13-yl)piperidin-4-yl)-1H-pyrazol-4-yl)pyrazine-2-carboxylate], the “Degradation assay (Degradation %) 1 μM” value (MLKL [1]) was 19.42%, the “Degradation assay (Degradation %) 10 μM” value (MLKL [1]) was 53.09% and the “Necroptosis inhibition assay (Rescue %) 1 μM” value (FADD−/− Jurkat cells) was 12.69%. The “Necroptosis inhibition assay (Rescue %) 10 μM” value (FADD−/− Jurkat cells) was 50.51% and the Kd (MLKL [2]) was 4.4 nM.

In the case of `Nc1ncc(-c2cnn(C3CCN(C[C@H]4CC[C@H](CNC(=O)C5CCN(c6cccc7c6C(=O)N(C6CCC(=O)NC6=O)C7=O)CC5)CC4)CC3)c2)nc1C(=O)O[C@@H](C(=O)Nc1ccc(F)cc1)c1ccccc1` (stereo partly drawn) [TDH-349, (R)-2-((4-fluorophenyl)amino)-2-oxo-1-phenylethyl 3-amino-6-(1-(1-(((1r,4r)-4-((1-(2-(2,6-dioxopiperidin-3-yl)-1,3-dioxoisoindolin-4-yl)piperidine-4-carboxamido)methyl)cyclohexyl)methyl)piperidin-4-yl)-1H-pyrazol-4-yl)pyrazine-2-carboxylate], the “Degradation assay (Degradation %) 1 μM” value (MLKL [1]) is reported as 93.71%, the “Degradation assay (Degradation %) 10 μM” value (MLKL [1]) is reported as 92.68% and the “Necroptosis inhibition assay (Rescue %) 1 μM” value (FADD−/− Jurkat cells) is reported as 45.54%. The “Necroptosis inhibition assay (Rescue %) 10 μM” value (FADD−/− Jurkat cells) was 42.11% and the Kd (MLKL [2]) was 3.7 nM.

`Nc1ncc(-c2cnn(C3CCN(CC4CCN(C(=O)COc5ccc6nnn(C7CCC(=O)NC7=O)c(=O)c6c5)CC4)CC3)c2)nc1C(=O)O[C@@H](C(=O)Nc1ccc(F)cc1)c1ccccc1` (stereo partly drawn) [TDH-169, (R)-2-((4-fluorophenyl)amino)-2-oxo-1-phenylethyl 3-amino-6-(1-(1-((1-(2-((3-(2,6-dioxopiperidin-3-yl)-4-oxo-3,4-dihydrobenzo[d][1,2,3]triazin-6-yl)oxy)acetyl)piperidin-4-yl)methyl)piperidin-4-yl)-1H-pyrazol-4-yl)pyrazine-2-carboxylate] was tested, and the “Degradation assay (Degradation %) 1 μM” value (MLKL [1]) was 71.77%, the “Degradation assay (Degradation %) 10 μM” value (MLKL [1]) was 58.09% and the “Necroptosis inhibition assay (Rescue %) 1 μM” value (FADD−/− Jurkat cells) was 68.09%. The “Necroptosis inhibition assay (Rescue %) 10 μM” value (FADD−/− Jurkat cells) was 50.74% and the Kd (MLKL [2]) was 2 nM.

In the case of `Nc1ncc(-c2cnn(C3CCN(CCC4CCN(C(=O)CNc5ccc6c(c5)C(=O)N(C5CCC(=O)NC5=O)C6=O)CC4)CC3)c2)nc1C(=O)O[C@@H](C(=O)Nc1ccc(F)cc1)c1ccccc1` (stereo partly drawn) [TDH-199, (R)-2-((4-fluorophenyl)amino)-2-oxo-1-phenylethyl 3-amino-6-(1-(1-(2-(1-((2-(2,6-dioxopiperidin-3-yl)-1,3-dioxoisoindolin-5-yl)glycyl)piperidin-4-yl)ethyl)piperidin-4-yl)-1H-pyrazol-4-yl)pyrazine-2-carboxylate], the “Degradation assay (Degradation %) 1 μM” value (MLKL [1]) is reported as 61.77%, the “Degradation assay (Degradation %) 10 μM” value (MLKL [1]) is reported as 38.35% and the “Necroptosis inhibition assay (Rescue %) 1 μM” value (FADD−/− Jurkat cells) is reported as 36.93%. The “Necroptosis inhibition assay (Rescue %) 10 μM” value (FADD−/− Jurkat cells) was 18% and the Kd (MLKL [2]) was 1.7 nM.

In the case of `Nc1ncc(-c2cnn(C3CCN(CCCN4CC5CN(C(=O)CCc6ccc7c(c6)C(=O)N(C6CCC(=O)NC6=O)C7=O)CC5C4)CC3)c2)nc1C(=O)O[C@@H](C(=O)Nc1ccc(F)cc1)c1ccccc1` (stereo partly drawn) [TDH-480, (R)-2-((4-fluorophenyl)amino)-2-oxo-1-phenylethyl 3-amino-6-(1-(1-(3-(5-(3-(2-(2,6-dioxopiperidin-3-yl)-1,3-dioxoisoindolin-5-yl)propanoyl)hexahydropyrrolo[3,4-c]pyrrol-2(1H)-yl)propyl)piperidin-4-yl)-1H-pyrazol-4-yl)pyrazine-2-carboxylate], the “Degradation assay (Degradation %) 1 μM” value (MLKL [1]) is reported as 46.42%, the “Degradation assay (Degradation %) 10 μM” value (MLKL [1]) is reported as 73% and the “Necroptosis inhibition assay (Rescue %) 1 μM” value (FADD−/− Jurkat cells; FADD−/− Jurkat cells) is reported as 35.76%. For the same molecule, the “Necroptosis inhibition assay (Rescue %) 10 μM” value (FADD−/− Jurkat cells; FADD−/− Jurkat cells) was 39.78% and the Kd (MLKL [2]) was 0.48 nM.

`Nc1ncc(-c2cnn(C3CCN(CCOC4CCN(C(=O)CCc5cccc6c5C(=O)N(C5CCC(=O)NC5=O)C6=O)CC4)CC3)c2)nc1C(=O)O[C@@H](C(=O)Nc1ccc(F)cc1)c1ccccc1` (stereo partly drawn) [TDH-378, (R)-2-((4-fluorophenyl)amino)-2-oxo-1-phenylethyl 3-amino-6-(1-(1-(2-((1-(3-(2-(2,6-dioxopiperidin-3-yl)-1,3-dioxoisoindolin-4-yl)propanoyl)piperidin-4-yl)oxy)ethyl)piperidin-4-yl)-1H-pyrazol-4-yl)pyrazine-2-carboxylate] was tested, and the “Degradation assay (Degradation %) 1 μM” value (MLKL [1]) was 88.62%, the “Degradation assay (Degradation %) 10 μM” value (MLKL [1]) was 80.01% and the “Necroptosis inhibition assay (Rescue %) 1 μM” value (FADD−/− Jurkat cells) was 49.61%. The “Necroptosis inhibition assay (Rescue %) 10 μM” value (FADD−/− Jurkat cells) was 28.89% and the Kd (MLKL [2]) was 2 nM.

With `Nc1ncc(-c2cnn(C3CCN(CCOCCOCCNC(=O)C4CN(c5cccc6c5C(=O)N(C5CCC(=O)NC5=O)C6=O)C4)CC3)c2)nc1C(=O)O[C@@H](C(=O)Nc1ccc(F)cc1)c1ccccc1` (stereo partly drawn) [TDH-115, (R)-2-((4-fluorophenyl)amino)-2-oxo-1-phenylethyl 3-amino-6-(1-(1-(2-(2-(2-(1-(2-(2,6-dioxopiperidin-3-yl)-1,3-dioxoisoindolin-4-yl)azetidine-3-carboxamido)ethoxy)ethoxy)ethyl)piperidin-4-yl)-1H-pyrazol-4-yl)pyrazine-2-carboxylate] the “Degradation assay (Degradation %) 1 μM” value (MLKL [1]) was 10.31%, the “Degradation assay (Degradation %) 10 μM” value (MLKL [1]) was 24.21% and the “Necroptosis inhibition assay (Rescue %) 1 μM” value (FADD−/− Jurkat cells) was 12.42%. The “Necroptosis inhibition assay (Rescue %) 10 μM” value (FADD−/− Jurkat cells) was 3.59% and the Kd (MLKL [2]) was 6.3 nM.

In the case of `Nc1ncc(-c2cnn(C3CCN(C(=O)C4CCN(C(=O)C5CN(c6ccc7nnn(C8CCC(=O)NC8=O)c(=O)c7c6)C5)CC4)CC3)c2)nc1C(=O)O[C@@H](C(=O)Nc1ccc(F)cc1)c1ccccc1` (stereo partly drawn) [TDH-409, (R)-2-((4-fluorophenyl)amino)-2-oxo-1-phenylethyl 3-amino-6-(1-(1-(1-(1-(3-(2,6-dioxopiperidin-3-yl)-4-oxo-3,4-dihydrobenzo[d][1,2,3]triazin-6-yl)azetidine-3-carbonyl)piperidine-4-carbonyl)piperidin-4-yl)-1H-pyrazol-4-yl)pyrazine-2-carboxylate], the “Degradation assay (Degradation %) 1 μM” value (MLKL [1]) is reported as 81.20%, the “Degradation assay (Degradation %) 10 μM” value (MLKL [1]) is reported as 71.90% and the “Necroptosis inhibition assay (Rescue %) 1 μM” value (FADD−/− Jurkat cells; FADD−/− Jurkat cells) is reported as 39.62%. For the same molecule, the “Necroptosis inhibition assay (Rescue %) 10 μM” value (FADD−/− Jurkat cells; FADD−/− Jurkat cells) was 24.45% and the Kd (MLKL [2]) was 1.6 nM.

With `Nc1ncc(-c2cnn(C3CCN(C(=O)c4cn(C5CCN(C(=O)C6CCN(c7ccc8c(c7)C(=O)N(C7CCC(=O)NC7=O)C8=O)CC6)CC5)cn4)CC3)c2)nc1C(=O)O[C@@H](C(=O)Nc1ccc(F)cc1)c1ccccc1` (stereo partly drawn) [TDH-363, (R)-2-((4-fluorophenyl)amino)-2-oxo-1-phenylethyl 3-amino-6-(1-(1-(1-(1-(1-(2-(2,6-dioxopiperidin-3-yl)-1,3-dioxoisoindolin-5-yl)piperidine-4-carbonyl)piperidin-4-yl)-1H-imidazole-4-carbonyl)piperidin-4-yl)-1H-pyrazol-4-yl)pyrazine-2-carboxylate] the “Degradation assay (Degradation %) 1 μM” value (MLKL [1]) was 76.83%, the “Degradation assay (Degradation %) 10 μM” value (MLKL [1]) was 69.84% and the “Necroptosis inhibition assay (Rescue %) 1 μM” value (FADD−/− Jurkat cells) was 32.65%. For the same molecule, the “Necroptosis inhibition assay (Rescue %) 10 μM” value (FADD−/− Jurkat cells) was 27.11% and the Kd (MLKL [2]) was 2.9 nM.

In the case of `Nc1ncc(-c2cnn(C3CCN(CCCCCCNC(=O)C4CN(c5cccc6c5C(=O)N(C5CCC(=O)NC5=O)C6=O)C4)CC3)c2)nc1C(=O)O[C@@H](C(=O)Nc1ccc(F)cc1)c1ccccc1` (stereo partly drawn) [TDH-113, (R)-2-((4-fluorophenyl)amino)-2-oxo-1-phenylethyl 3-amino-6-(1-(1-(6-(1-(2-(2,6-dioxopiperidin-3-yl)-1,3-dioxoisoindolin-4-yl)azetidine-3-carboxamido)hexyl)piperidin-4-yl)-1H-pyrazol-4-yl)pyrazine-2-carboxylate], the “Degradation assay (Degradation %) 1 μM” value (MLKL [1]) is reported as 24.54%, the “Degradation assay (Degradation %) 10 μM” value (MLKL [1]) is reported as 19.24% and the “Necroptosis inhibition assay (Rescue %) 1 μM” value (FADD−/− Jurkat cells) is reported as 24.96%. The “Necroptosis inhibition assay (Rescue %) 10 μM” value (FADD−/− Jurkat cells) was 5.16% and the Kd (MLKL [2]) was 2.3 nM.
